In one series the target is T1, rCYP1A1 (Homo sapiens, UniProt P04798).
T1 construct: purchased SPMED (Busan, Republic of Korea)
T1 sequence (P04798 1-512): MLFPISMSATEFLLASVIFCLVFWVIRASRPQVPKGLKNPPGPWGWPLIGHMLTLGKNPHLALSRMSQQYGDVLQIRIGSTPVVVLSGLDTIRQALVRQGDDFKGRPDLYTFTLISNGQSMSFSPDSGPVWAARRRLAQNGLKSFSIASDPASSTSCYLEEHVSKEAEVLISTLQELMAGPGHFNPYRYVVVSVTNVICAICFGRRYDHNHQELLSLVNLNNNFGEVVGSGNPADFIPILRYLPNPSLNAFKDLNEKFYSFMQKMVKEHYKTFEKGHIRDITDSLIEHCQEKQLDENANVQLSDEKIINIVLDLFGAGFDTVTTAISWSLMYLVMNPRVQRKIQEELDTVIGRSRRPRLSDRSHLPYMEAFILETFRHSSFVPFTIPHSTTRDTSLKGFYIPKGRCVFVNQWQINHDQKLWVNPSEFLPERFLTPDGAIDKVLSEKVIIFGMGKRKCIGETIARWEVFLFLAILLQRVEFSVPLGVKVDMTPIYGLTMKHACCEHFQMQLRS
In words: Phenacetin O-deethylation (POD) in recombinant CYP1A1. In kind it is biochemical.

For another series, the target named is CYP3A (Homo sapiens, UniProt P08684). Put plainly: Midazolam 1'-hydroxylation in human liver microsomes. In kind it is biochemical. The note with it: pooled human liver microsomes, probe midazolam, HLMs.
CYP3A, sequence (P08684 2-503): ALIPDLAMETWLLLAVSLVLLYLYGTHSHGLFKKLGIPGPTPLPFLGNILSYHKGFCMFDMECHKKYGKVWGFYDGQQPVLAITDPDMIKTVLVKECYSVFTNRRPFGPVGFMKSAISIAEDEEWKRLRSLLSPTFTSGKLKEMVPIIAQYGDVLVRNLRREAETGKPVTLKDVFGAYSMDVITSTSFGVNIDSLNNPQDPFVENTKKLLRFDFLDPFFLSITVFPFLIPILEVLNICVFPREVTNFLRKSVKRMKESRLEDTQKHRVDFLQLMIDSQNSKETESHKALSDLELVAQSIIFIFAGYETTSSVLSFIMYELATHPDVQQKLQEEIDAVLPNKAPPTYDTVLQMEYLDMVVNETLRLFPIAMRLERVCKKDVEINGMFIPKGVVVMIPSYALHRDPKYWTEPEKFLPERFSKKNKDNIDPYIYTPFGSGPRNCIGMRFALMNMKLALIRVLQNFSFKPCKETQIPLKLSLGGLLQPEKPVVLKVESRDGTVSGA
Series [1] concerns the target T2, CYP1A2 versus CYP2A6, CYP2B6, CYP2C8, CYP2C9, CYP2C19, CYP2D6, CYP2E1, CYP3A (Homo sapiens, UniProt P05177).
T2 sequence (P05177 1-516): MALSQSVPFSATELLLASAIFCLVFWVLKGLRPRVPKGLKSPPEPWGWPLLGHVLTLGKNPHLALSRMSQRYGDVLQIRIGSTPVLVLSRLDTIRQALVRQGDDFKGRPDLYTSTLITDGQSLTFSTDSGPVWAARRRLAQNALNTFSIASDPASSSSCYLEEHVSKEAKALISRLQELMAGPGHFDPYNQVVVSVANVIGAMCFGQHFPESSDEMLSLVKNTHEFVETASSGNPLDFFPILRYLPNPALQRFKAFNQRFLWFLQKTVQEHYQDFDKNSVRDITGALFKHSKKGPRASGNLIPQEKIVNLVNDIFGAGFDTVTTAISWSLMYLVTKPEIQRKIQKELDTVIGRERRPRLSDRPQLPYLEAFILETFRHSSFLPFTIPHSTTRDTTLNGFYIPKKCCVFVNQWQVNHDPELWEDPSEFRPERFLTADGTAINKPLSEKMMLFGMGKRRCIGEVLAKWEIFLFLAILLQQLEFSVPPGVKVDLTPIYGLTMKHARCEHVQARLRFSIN
In words: CYP1A2-mediated phenacetin O-deethylase (POD) activity in pooled human liver microsomes. The note with it: human, pooled human liver microsomes. As for the experimental part:
(§1) The inhibitory potential of five major bioactive compounds from Cassiae semen against CYP1A2-mediated phenacetin O-deethylase (POD) activity was evaluated using previously developed methods with minor modifications. Briefly, the compounds were dissolved in methanol. The incubation mixtures containing pHLMs (0.25 mg/mL), phenacetin (100 µM), and inhibitor (0, 0.5, 2, 5, 20, or 50 µM) were pre-incubated at 37 °C for 5 min. An NADPH-generating system (NGS, 1.3 mM β-NADP^+, 3.3 mM G6P, 1.0 U/mL G6PDH, and 3.3 mM magnesium chloride) was introduced after pre-incubation to initiate the reaction, and further incubated for 15 min. The reaction was quenched by the addition of 50 µL ice-cold acetonitrile containing internal standard (IS; 7nM trimipramine). Aliquots of supernatants were analyzed by liquid chromatography–tandem mass spectrometry (LC-MS/MS, LCMS 8060 system, Shimadzu, Kyoto, Japan). All microsomal incubations were repeated three times.
(§2) The inhibitory potential of obtusifolin against the biotransformation of eight P450 probe substrates was examined using previously reported methods with slight changes. The following P450 isoform-specific substrates were used: coumarin (CYP2A6); bupropion (CYP2B6); amodiaquine (CYP2C8); tolbutamide (CYP2C9); omeprazole (CYP2C19); dextromethorphan (CYP2D6); chlorzoxazone (CYP2E1); and midazolam (CYP3A). Mixtures of pooled HLM, P450 substrates, and obtusifolin (0, 0.05, 0.2, 0.5, 2, 5, or 10 µM for CYP1A2; and 0, 0.5, 2, 5, 20, or 50 µM for the other P450 isoforms) were pre-incubated (5 min, 37 °C). NGS was introduced to start the reaction, which was followed by an additional incubation (15 min). Following reaction termination, aliquots of the supernatants were analyzed with LC-MS/MS.
(§3) Reverse phase column (Kinetex XB-C18, 100 × 2.10 mm; Phenomenex, Torrance, CA, USA) and triple-quadrupole mass spectrometer (LCMS 8060, Shimadzu, Kyoto, Japan) with an ultra high-performance LC system (Nexera X2, Shimadzu) analyze all the metabolites. Mobile phases were 0.1% formic acid in water (A) and 0.1% formic acid in acetonitrile (B). The elution condition was as follows: 0–0.5 min (B: 8%), 0.5–5 min (B: 8%→60%), 5–6 min (B: 60%), 6–6.1 min (B: 60%→8%), and 6.1–10 min (B: 8%) for the analysis of metabolites of the nine P450 substrates; and 0–1 min (B: 5%), 1–5 min (B: 5%→90%), and 5.1–7 min (B: 90%→5%) for the analysis of resorufin. Electrospray ionization was performed in the positive- and negative-ion modes at 4.0 and −3.5 kV, respectively. For each metabolite, quantitation was carried out in selected reaction monitoring (SRM) mode using the following precursor-to-product ion transition: m/z 152 > 110 for acetaminophen (CYP1A2), m/z 214 > 186 for resorufin (CYP1A1 and CYP1A2), m/z 163 > 107 for 7-hydroxycoumarin (CYP2A6), m/z 256 > 238 for 6-hydroxybupropion (CYP2B6), m/z 328 > 283 for N-desethylamodiaquine (CYP2C8), m/z 287 > 89 for 5-hydroxytolbutamide (CYP2C9), m/z 362 > 214 for 4-hydroxyomeprazole ([…]), m/z 258 > 157 for dextrorphan (CYP2D6), m/z 184 > 120 for 6-hydroxychlorzoxazone (CYP2E1), m/z 342 > 203 for 1′-hydroxymidazolam (CYP3A), and m/z 295 > 100 for trimipramine (IS).
(§4) WinNonlin software (Pharsight, Mountain View, CA, USA) was used to calculate IC50 values. Based on Lineweaver–Burk double reciprocal plots, secondary plots of Lineweaver–Burk plots versus obtusifolin concentrations, and visual inspection of Dixon plots, the type of inhibition and apparent kinetic parameters for inhibitory activity (Ki) were estimated.

The next series has as its target T3, CYP1A2 (Homo sapiens, UniProt P05177).
T3 sequence (P05177 1-516): T2 sequence (P05177 1-516)
The series is described as above. As for the experimental part:
as §1, §2, §3, §4

For `COc1c(O)c(C)cc2c1C(=O)c1c(O)cccc1C2=O` [Obtusifolin, obtusifolin], on rCYP1A1 (CYP1A-mediated POD activity), the “Selectivity for rCYP1A1 over rCYP1A2” value was “over six-fold”. The IC50 worked out at 60 ± 20 nM at rCYP1A1 (substrate phenacetin (POD)) and 190 ± 10 nM at CYP1A2. Further, on CYP3A, the IC50 at 15 min was above 50000 nM. The selectivity ratio at 15 min in series [1] is above 150. Also, the inhibition at 15 min, 0.5 µM at CYP1A2 (human, pooled human liver microsomes, probe phenacetin (100 µM)) is 73.3%.
